Biological target: T1, LRRK2 (endogenous, HiBit tagged) (Homo sapiens, UniProt Q5S007)
T1 construct: endogenous in cells; host or cells: HEK293 cells with HiBit knock-in at the endogenous LRRK2 locus, stably expressing firefly luciferase
Assay: Endogenous LRRK2 degradation assay, endogenous gene C-terminally HiBit-tagged in HEK293 cells (Nano-Glo Dual Luciferase)
Format: cell-based
Conditions: endogenous HiBit-tagged LRRK2 in HEK293 cells, 24 hours treatment; for Dmax: read-out: **Endogenous WT Dmax (%); for DC50: read-out: *Endogenous WT DC50
Summary of the method: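 LRRK2-HiBit quantified via Nano-Glo Dual Luciferase in HEK293 knock-in cells co-expressing firefly luciferase, after 24 h exposure to compound (1 μM final top, 1:3, 11 points). Values normalised to DMSO median per plate and curve-fitted; Alamar Blue viability run alongside.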

T1 sequence (Q5S007 whole entry): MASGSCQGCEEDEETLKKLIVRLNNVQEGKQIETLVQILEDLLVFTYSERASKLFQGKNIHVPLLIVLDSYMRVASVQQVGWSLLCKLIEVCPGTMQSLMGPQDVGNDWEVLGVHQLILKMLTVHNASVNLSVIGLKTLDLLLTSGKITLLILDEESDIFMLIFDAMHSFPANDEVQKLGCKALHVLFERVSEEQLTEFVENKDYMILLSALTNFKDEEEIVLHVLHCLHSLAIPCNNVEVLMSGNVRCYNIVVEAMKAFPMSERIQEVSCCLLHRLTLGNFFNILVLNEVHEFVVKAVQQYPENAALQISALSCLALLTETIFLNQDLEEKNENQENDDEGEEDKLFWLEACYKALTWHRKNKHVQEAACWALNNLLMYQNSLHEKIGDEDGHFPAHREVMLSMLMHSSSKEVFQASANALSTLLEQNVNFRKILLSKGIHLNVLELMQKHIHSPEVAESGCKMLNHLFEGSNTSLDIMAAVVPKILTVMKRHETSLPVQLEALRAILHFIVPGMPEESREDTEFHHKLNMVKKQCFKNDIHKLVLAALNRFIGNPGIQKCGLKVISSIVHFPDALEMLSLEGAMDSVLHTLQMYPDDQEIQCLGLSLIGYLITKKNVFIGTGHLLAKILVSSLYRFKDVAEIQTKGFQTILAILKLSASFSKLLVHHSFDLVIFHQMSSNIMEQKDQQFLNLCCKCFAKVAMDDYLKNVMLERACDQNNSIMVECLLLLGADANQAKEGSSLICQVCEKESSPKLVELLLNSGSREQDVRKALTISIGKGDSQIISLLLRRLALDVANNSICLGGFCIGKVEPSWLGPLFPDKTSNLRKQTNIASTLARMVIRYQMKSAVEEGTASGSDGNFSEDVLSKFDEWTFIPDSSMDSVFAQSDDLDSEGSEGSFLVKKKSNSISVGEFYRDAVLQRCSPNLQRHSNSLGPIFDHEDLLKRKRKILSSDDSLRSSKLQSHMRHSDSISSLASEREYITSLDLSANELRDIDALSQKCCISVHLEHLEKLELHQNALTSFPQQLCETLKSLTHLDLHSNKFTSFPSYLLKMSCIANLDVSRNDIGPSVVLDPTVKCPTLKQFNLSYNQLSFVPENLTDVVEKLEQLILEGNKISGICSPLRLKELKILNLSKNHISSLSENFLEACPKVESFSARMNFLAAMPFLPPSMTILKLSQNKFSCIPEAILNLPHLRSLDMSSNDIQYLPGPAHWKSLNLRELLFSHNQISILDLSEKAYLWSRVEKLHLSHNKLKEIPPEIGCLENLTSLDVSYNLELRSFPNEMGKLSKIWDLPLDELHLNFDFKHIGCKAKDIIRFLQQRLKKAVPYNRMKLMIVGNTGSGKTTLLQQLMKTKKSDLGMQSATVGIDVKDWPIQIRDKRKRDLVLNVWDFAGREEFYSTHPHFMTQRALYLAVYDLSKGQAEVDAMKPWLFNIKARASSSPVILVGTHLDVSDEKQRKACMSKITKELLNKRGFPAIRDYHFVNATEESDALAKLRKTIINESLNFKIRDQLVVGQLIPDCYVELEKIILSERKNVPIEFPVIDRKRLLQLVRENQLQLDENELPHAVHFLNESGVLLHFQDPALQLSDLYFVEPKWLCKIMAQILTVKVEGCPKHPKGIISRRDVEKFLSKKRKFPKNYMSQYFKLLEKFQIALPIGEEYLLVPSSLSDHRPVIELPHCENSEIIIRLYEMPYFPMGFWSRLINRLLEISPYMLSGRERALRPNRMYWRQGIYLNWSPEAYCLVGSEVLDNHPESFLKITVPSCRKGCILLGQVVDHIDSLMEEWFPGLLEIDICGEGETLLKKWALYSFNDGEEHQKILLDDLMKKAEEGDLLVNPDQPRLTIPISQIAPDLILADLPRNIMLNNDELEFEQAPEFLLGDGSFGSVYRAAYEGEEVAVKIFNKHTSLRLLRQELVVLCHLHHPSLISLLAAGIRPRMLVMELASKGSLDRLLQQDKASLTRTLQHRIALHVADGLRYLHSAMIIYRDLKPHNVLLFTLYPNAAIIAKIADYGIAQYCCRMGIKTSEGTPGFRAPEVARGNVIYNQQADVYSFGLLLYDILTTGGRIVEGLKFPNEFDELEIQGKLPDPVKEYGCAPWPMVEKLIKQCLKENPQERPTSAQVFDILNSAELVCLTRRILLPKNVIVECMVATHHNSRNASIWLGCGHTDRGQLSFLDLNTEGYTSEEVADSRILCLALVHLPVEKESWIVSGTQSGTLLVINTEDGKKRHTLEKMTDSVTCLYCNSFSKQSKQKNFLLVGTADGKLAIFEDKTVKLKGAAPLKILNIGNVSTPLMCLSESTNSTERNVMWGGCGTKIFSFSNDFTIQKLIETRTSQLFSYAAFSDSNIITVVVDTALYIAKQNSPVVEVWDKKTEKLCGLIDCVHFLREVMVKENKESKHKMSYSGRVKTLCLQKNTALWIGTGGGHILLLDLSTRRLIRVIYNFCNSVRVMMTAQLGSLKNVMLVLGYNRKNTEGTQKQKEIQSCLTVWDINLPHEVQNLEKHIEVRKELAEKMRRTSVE

Row | Dmax | DC50 | SMILES
1 | ≥ 70% | < 10 nM | C[C@@H]1CN(CC2CCN(c3ccc4c(c3F)CN(C3CCC(=O)NC3=O)C4=O)CC2)CCN1CC1CCN(c2cc(-c3n[nH]c4cnc(OC5(C)CC5)cc34)ncn2)CC1 (stereo partly drawn) [Compound 263, 3-[4-fluoro-5-(4-{[(3R)-3-methyl-4-[(1-{6-[5-(1-methylcyclopropoxy)-1H-pyrazolo[3,4-c]pyridin-3-yl]pyrimidin-4-yl}piperidin-4-yl)methyl]piperazin-1-yl]methyl}piperidin-1-yl)-1-oxo-2,3-dihydro-1H-isoindol-2-yl]piperidine-2,6-dione]
2 | ≥ 70% | < 10 nM | COc1c(N2CCC(CN3CCN(CC4CCN(c5cc(-c6n[nH]c7ccc(OC8(C)CC8)cc67)ncn5)CC4)C[C@@H]3C)CC2)ccc2c1CN(C1CCC(=O)NC1=O)C2=O (stereo partly drawn) [Compound 264, 3-[4-methoxy-5-(4-{[(2S)-2-methyl-4-[(1-{6-[5-(1-methylcyclopropoxy)-1H-indazol-3-yl]pyrimidin-4-yl}piperidin-4-yl)methyl]piperazin-1-yl]methyl}piperidin-1-yl)-1-oxo-2,3-dihydro-1H-isoindol-2-yl]piperidine-2,6-dione]
3 | ≥ 70% | < 10 nM | COc1c(N2CCN(C[C@H]3CC[C@H](CN4CCN(c5cc(-c6n[nH]c7ccc(OC8(C)CC8)cc67)ncn5)CC4)CC3)CC2)ccc2c1CN(C1CCC(=O)NC1=O)C2=O (some centres unmarked) [Compound 265, 3-[4-methoxy-1-oxo-5-(4-{[(1r,4r)-4-[(4-{6-[5-(1-methylcyclopropoxy)-1H-indazol-3-yl]pyrimidin-4-yl}piperazin-1-yl)methyl]cyclohexyl]methyl}piperazin-1-yl)-2,3-dihydro-1H-isoindol-2-yl]piperidine-2,6-dione]

Continued, molecule first:

Row | SMILES | Dmax | DC50
4 | CC1(Oc2cc3c(-c4cc(N5CCC(O[C@H]6CC[C@H](CN7CCN(c8ccc9c(c8F)CN(C8CCC(=O)NC8=O)C9=O)CC7)CC6)CC5)ncn4)n[nH]c3cc2F)CC1 (some centres unmarked) [Compound 259, 3-[4-fluoro-1-oxo-5-(4-{[(1r,4r)-4-[(1-{6-[6-fluoro-5-(1-methylcyclopropoxy)-1H-indazol-3-yl]pyrimidin-4-yl}piperidin-4-yl)oxy]cyclohexyl]methyl}piperazin-1-yl)-2,3-dihydro-1H-isoindol-2-yl]piperidine-2,6-dione] | 50 to 70% | < 10 nM
5 | CC1(Oc2cc3c(-c4cc(N5CCN(C[C@H]6CC[C@H](OC7CCN(c8ccc9c(c8F)CN(C8CCC(=O)NC8=O)C9=O)CC7)CC6)CC5)ncn4)n[nH]c3cc2F)CC1 (some centres unmarked) [Compound 260, 3-[4-fluoro-1-oxo-5-(4-{[(1r,4r)-4-[(4-{6-[6-fluoro-5-(1-methylcyclopropoxy)-1H-indazol-3-yl]pyrimidin-4-yl}piperazin-1-yl)methyl]cyclohexyl]oxy}piperidin-1-yl)-2,3-dihydro-1H-isoindol-2-yl]piperidine-2,6-dione] | 50 to 70% | < 10 nM
6 | COc1c(N2CCN(C[C@H]3CC[C@H](CN4CCN(c5cc(-c6n[nH]c7cnc(OC8(C)CC8)cc67)ncn5)CC4)CC3)CC2)ccc2c1CN(C1CCC(=O)NC1=O)C2=O (some centres unmarked) [Compound 261, 3-[4-methoxy-1-oxo-5-(4-{[(1r,4r)-4-[(4-{6-[5-(1-methylcyclopropoxy)-1H-pyrazolo[3,4-c]pyridin-3-yl]pyrimidin-4-yl}piperazin-1-yl)methyl]cyclohexyl]methyl}piperazin-1-yl)-2,3-dihydro-1H-isoindol-2-yl]piperidine-2,6-dione] | 50 to 70% | < 10 nM
7 | COc1c(N2CCC(CN3CCN(CC4CCN(c5cc(-c6n[nH]c7ccc(OC8(C)CC8)cc67)ncn5)CC4)CC3(C)C)CC2)ccc2c1CN(C1CCC(=O)NC1=O)C2=O (centres unmarked) [Compound 262, 3-{5-[4-({2,2-dimethyl-4-[(1-{6-[5-(1-methylcyclopropoxy)-1H-indazol-3-yl]pyrimidin-4-yl}piperidin-4-yl)methyl]piperazin-1-yl}methyl)piperidin-1-yl]-4-methoxy-1-oxo-2,3-dihydro-1H-isoindol-2-yl}piperidine-2,6-dione] | 50 to 70% | < 10 nM

From patent publication US12559506B2, “Indazole based compounds and associated methods of use” (Arvinas Operations, Inc., priority 2021, dated 2026)
